Measurements as given in patent US4507315A, “Hypoglycaemic and hypolipidaemic benzamide substituted (1H-) imidazole derivatives and compositions” (May & Baker Limited, priority 1982, dated 1985).
“And” between values parts separate entries of the source, which are not always exact repeats. Identical values can stand only once.

Experiments:
Format in all cases: in vivo
[1] = system: Diabetic mice (strain C 57, black, MRI derived Obese/Obese); assay: Hypoglycaemic Activity in Diabetic Mice (oral, 3 days); conditions: for change in vivo at 200 mg/kg / change in blood glucose compared with control: 200 mg/kg body weight per day; for change in vivo at 30 mg/kg: 30 mg/kg body weight per day; for change in vivo at 100 mg/kg: 100 mg/kg body weight per day
Method: Diabetic mice (strain C 57, black, MRI derived Obese/Obese) of either sex each weighing between 45 and 70 g were given the test compound orally in tragacanth mucilage at a dose of 5,10,30,100,200 or 500 mg/kg body weight per day for 3 days. Three hours after the last dose the animals were killed with carbon dioxide and bled by cardiac puncture. The blood glucose levels were assessed by the glucose-oxidase method of GOD-Perid. Control groups (given doses of unmedicated tragacanth mucilage) were included with each test. The percentage reduction in the concentration of blood glucose was calculated by comparison with the simultaneous controls, for each of the test compounds used.

Male Wistar rats = assay: Hypolipidaemic Activity in Rats; conditions: oral, last 3 days of 10-day cholesterol/cholic acid diet
Method: Male Wistar rats each weighing between 120 and 150 g were caged in groups of eight and fed a pelleted diet incorporating 0.5% w/w cholesterol and 0.25% w/w cholic acid for 10 days. For the last 3 days of that period the test compound was administered orally at a dose of 30, 100 or 200 mg/kg body weight per day in tragacanth mucilage.
At noon on day 10 the animals were killed by inhalation of carbon dioxide from solid carbon dioxide. A sample of blood was removed by cardiac puncture and the serum cholesterol and serum triglycerides were analysed by means of an auto-analyser.
Control group (receiving only doses of unmedicated tragacanth mucilage) were included with each test.
The percentage reductions in the concentrations of serum cholesterol and serum triglycerides were calculated by comparison with the simultaneous controls, for each concentration of the test compound used.

[2] = system: Diabetic mice (strain C 57, black, MRI derived Obese/Obese); assay: Hypoglycaemic Activity in Diabetic Mice (oral, 8 days, W hydrochloride); conditions: male diabetic mice
Method: Groups of diabetic mice (strain C 57, black, MRI derived Obese/Obese) of male sex of mean weight between 43 and 46 g were given the test compound W hydrochloride orally in tragacanth mucilage at a dose of 2, 5 or 100 mg/kg body weight per day for 8 days. Three hours after the last dose the animals were bled from the tail vein. The blood glucose levels were assessed by the glucose-oxidase method of GOD-Perid. Control groups (given doses of unmedicated tragacanth mucilage) were included with each test. The percentage reduction in the concentration of blood glucose was calculated by comparison with the simultaneous controls.

Rats (Sprague-Dawley) = assay: Hypoglycaemic Activity in Fasted Rats; conditions: 100 mg/kg body weight per day, oral, 4 days, fasted male Sprague-Dawley rats
Method: Rats (Sprague-Dawley) of male sex each weighing between 171 and 174 g were given the test compound W hydrochloride orally in tragacanth mucilage at a dose of 100 mg/kg body weight per day for 4 days. Four hours after the third dose the animals were kept without food up to and beyond the fourth dose. Three hours after the last dose the animals were bled from the tail vein. The blood glucose levels were assessed by the glucose-oxidase method of GOD-Perid. Control groups (given doses of unmedicated tragacanth mucilage) were included with each test. The percentage reduction in the concentration of blood glucose was calculated by comparison with the simultaneous controls.

[3] = Mus musculus, po, 72 h, read-out: change in blood glucose compared with control

## CC(CCNC(=O)c1ccccc1NS(=O)(=O)c1ccc(Cl)cc1)n1ccnc1 (racemic) [WW, (±)-2-(4-chlorobenzenesulphonamido)-N-(3-imidazol-1-ylbutyl)benzamide]
[1]; [3]
  change in vivo at 200 mg/kg: -24%

## O=C(NCCCn1ccnc1)c1ccccc1NS(=O)(=O)c1ccc(Cl)cc1 [A, 2-(4-chlorobenzenesulphonamido)-N-(3-imidazol-1-ylpropyl)benzamide]
[1]; [3]
  change in vivo at 30 mg/kg: -13%
  change in vivo at 100 mg/kg: -49%
Male Wistar rats; 30 mg/kg body weight per day
  % change in serum cholesterol compared with control: -13%
  % change in serum triglycerides compared with control: +67%
Male Wistar rats; 100 mg/kg body weight per day
  % change in serum cholesterol compared with control: -35%
  % change in serum triglycerides compared with control: +36%
Male Wistar rats; 200 mg/kg body weight per day
  % change in serum cholesterol compared with control: -82% and -83%

## O=C(NCCCn1ccnc1)c1ccccc1NS(=O)(=O)c1cccc(Cl)c1 [B, 2-(3-chlorobenzenesulphonamido)-N-(3-imidazol-1-ylpropyl)benzamide]
[1]; [3]
  change in vivo at 200 mg/kg: -60%

## O=C(NCCCn1ccnc1)c1ccccc1NS(=O)(=O)c1ccc(Br)cc1 [D, 2-(4-bromobenzenesulphonamido)-N-(3-imidazol-1-ylpropyl)benzamide]
Male Wistar rats; 200 mg/kg body weight per day
  % change in serum cholesterol compared with control: -63%
  % change in serum triglycerides compared with control: -59%

## O=C(NCCCn1ccnc1)c1ccccc1NS(=O)(=O)c1ccccc1 [E, 2-(benzenesulphonamido)-N-(3-imidazol-1-ylpropyl)benzamide]
Male Wistar rats; 200 mg/kg body weight per day
  % change in serum cholesterol compared with control: -31%
  % change in serum triglycerides compared with control: +55%

## Cc1ccc(S(=O)(=O)Nc2ccccc2C(=O)NCCCn2ccnc2)cc1 [F, 2-(4-methylbenzenesulphonamido)-N-(3-imidazol-1-yl-propyl)benzamide]
[1]; [3]
  change in vivo at 200 mg/kg: -32%
Male Wistar rats; 200 mg/kg body weight per day
  % change in serum cholesterol compared with control: -72%
  % change in serum triglycerides compared with control: -60%

## Cc1ccc(S(=O)(=O)Nc2ccccc2C(=O)NCCCn2ccnc2)cc1C [G, 2-(3,4-dimethylbenzenesulphonamido)-N-(3-imidazol-1-ylpropyl)benzamide]
[1]; [3]
  change in vivo at 200 mg/kg: -25%

## O=C(NCCCn1ccnc1)c1cc(Cl)ccc1NS(=O)(=O)c1ccc(Cl)cc1 [I, 5-chloro-2-(4-chlorobenzenesulphonamido)-N-(3-imidazol-1-ylpropyl)benzamide]
[1]; [3]
  change in vivo at 200 mg/kg: -57%

## O=C(NCCCn1ccnc1)c1ccccc1NS(=O)(=O)c1cc(Cl)ccc1Cl [J, 2-(2,5-dichlorobenzenesulphonamido)-N-(3-imidazol-1-ylpropyl)benzamide]
[1]; [3]
  change in vivo at 200 mg/kg: -42%

## Cc1cn(CCCNC(=O)c2ccccc2NS(=O)(=O)c2ccc(Cl)cc2)cn1 [N, 2-(4-chlorobenzenesulphonamido)-N-[3-(4-methylimidazol-1-yl)propyl]benzamide]
[1]; [3]
  change in vivo at 200 mg/kg: -48%

## O=C(NCCCn1ccnc1)c1ccccc1NS(=O)(=O)c1ccc(F)cc1F [OO, 2-(2,4-difluorobenzenesulphonamido)-N-(3-imidazol-1-ylpropyl)benzamide]
[1]; [3]
  change in vivo at 200 mg/kg: -35%

## Cc1ccccc1S(=O)(=O)Nc1ccccc1C(=O)NCCCn1ccnc1 [QQ, 2-(2-methylbenzenesulphonamido)-N-(3-imidazol-1-ylpropyl)benzamide]
[1]; [3]
  change in vivo at 200 mg/kg: -43%

## O=C(NCCn1ccnc1)c1ccccc1NS(=O)(=O)c1ccc(Cl)cc1 [VV, 2-(4-chlorobenzenesulphonamido)-N-(2-imidazol-1-ylethyl)benzamide]
[1]; [3]
  change in vivo at 200 mg/kg: -53%

## Cl.O=C(NCCCn1ccnc1)c1ccccc1NS(=O)(=O)c1cccc(C(F)(F)F)c1 [W hydrochloride, 2-(3-trifluoromethylbenzenesulphonamido)-N-(3-imidazol-1-ylpropyl)benzamide hydrochloride]
[1]
  change in blood glucose compared with control: -62%
[1]; Mus musculus, po, 72 h, 5 mg/kg body weight per day, read-out: change in blood glucose compared with control
  change in vivo at 5 mg/kg: -25%
[1]; Mus musculus, po, 72 h, 10 mg/kg body weight per day, read-out: change in blood glucose compared with control
  change in vivo at 10 mg/kg: -29%
[1]; [3]
  change in vivo at 30 mg/kg: -58%
  change in vivo at 100 mg/kg: -50%
[1]; Mus musculus, po, 72 h, 500 mg/kg body weight per day, read-out: change in blood glucose compared with control
  change in vivo at 500 mg/kg: -46%
[2]; 2 mg/kg body weight per day
  % change in blood glucose compared with control: -25%
[2]; 5 mg/kg body weight per day
  % change in blood glucose compared with control: -28%
[2]; 100 mg/kg body weight per day
  % change in blood glucose compared with control: -50%
Rats (Sprague-Dawley)
  % change in blood glucose compared with control: -26%

## O=C(NCCCn1ccnc1)c1ccccc1NS(=O)(=O)c1cccc(C(F)(F)F)c1 [W, 2-(3-trifluoromethylbenzenesulphonamido)-N-(3-imidazol-1-ylpropyl)benzamide]
[1]
  change in blood glucose compared with control: -68%

## O=C(NCCCn1ccnc1)c1ccccc1NS(=O)(=O)c1ccc(Cl)c(Cl)c1 [X, 2-(3,4-dichlorobenzenesulphonamido)-N-(3-imidazol-1-ylpropyl)benzamide]
[1]; [3]
  change in vivo at 200 mg/kg: -58%

## O=C(NCCCn1ccnc1)c1ccccc1NS(=O)(=O)c1ccc(Cl)cc1Cl [Y, 2-(2,4-dichlorobenzenesulphonamido)-N-(3-imidazol-1-ylpropyl)benzamide]
[1]; [3]
  change in vivo at 200 mg/kg: -51%
